This note sets out measurements from PubChem BioAssay AID330 (DTP/NCI, 2004).

The test system of this assay is P388 leukemia ip, CD2F1 mice, survival T/C. Put plainly: NCI In Vivo Anticancer Drug Screen. Data for tumor model P388 Leukemia (intraperitoneal) in CD2F1 (CDF1) mice. The following applies: endpoint: median survival time, higher = longer survival. The method, boiled down:
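Mice carrying the transplanted tumor received test compound or vehicle. Survival was recorded in each group, and the value is the treated-group measurement divided by that of the vehicle-treated control group.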

The mark [1] stands for this setting: dose: 50.0 mg/kg/injection, schedule: Q01DX005 (ip), vehicle: Klucel (hydroxypropylcellulose) (HPC).
The mark [2] stands for this setting: dose: 100.0 mg/kg/injection, schedule: Q01DX005 (ip), vehicle: Klucel (hydroxypropylcellulose) (HPC).
The mark [3] stands for this setting: dose: 200.0 mg/kg/injection, schedule: Q01DX005 (ip), vehicle: Klucel (hydroxypropylcellulose) (HPC).
[4] abbreviates: dose: 100.0 mg/kg/injection, schedule: Q01DX009 (ip), vehicle: Klucel (hydroxypropylcellulose) (HPC).
Where [5] appears, read: dose: 60.0 mg/kg/injection, schedule: Q01DX005 (ip), vehicle: saline.
Setting [6] is: dose: 120.0 mg/kg/injection, schedule: Q01DX005 (ip), vehicle: saline.
Setting [7] is: dose: 240.0 mg/kg/injection, schedule: Q01DX005 (ip), vehicle: saline.

Values joined by “and” are separate entries in the source; they are usually repeats but may differ in a detail not shown here. Identical values can stand only once. Inconclusive results and toxic doses are left out.

Consider `Cc1ccc2c(c1)Nc1ccc(C)cc1C2(C)C`, for which the T/C is 104 % of control under setting [1], 100 % of control under setting [2] and 97 % of control under setting [3].
With `CCCNC(=O)/C(C)=C(\C)c1ccccc1`, the T/C (dose: 50.0 mg/kg/injection, schedule: Q04DX003 (ip), vehicle: Klucel (hydroxypropylcellulose) (HPC)) was 100 % of control; the T/C (dose: 100.0 mg/kg/injection, schedule: Q04DX003 (ip), vehicle: Klucel (hydroxypropylcellulose) (HPC)) is 99 % of control; the T/C (dose: 200.0 mg/kg/injection, schedule: Q04DX003 (ip), vehicle: Klucel (hydroxypropylcellulose) (HPC)) is 100 % of control.
As to `CCCCCn1c(C)cc(/C=C\c2ccc3cc(C)ccc3[n+]2C)c1C`, the T/C (dose: 0.5 mg/kg/injection, schedule: Q04DX003 (ip), vehicle: saline) is 118 % of control; the T/C (dose: 1.0 mg/kg/injection, schedule: Q04DX003 (ip), vehicle: saline) is 109 % of control; the T/C (dose: 2.0 mg/kg/injection, schedule: Q04DX003 (ip), vehicle: saline) was 109 % of control.
Regarding `COc1ccc(OC)c(NC(=O)Oc2c(C)cc(Cl)cc2Br)c1`, the T/C runs as follows: (dose: 50.0 mg/kg/injection, schedule: Q01DX009 (ip), vehicle: saline with Tween-80) 97 % of control; (dose: 100.0 mg/kg/injection, schedule: Q01DX009 (ip), vehicle: saline with Tween-80) 99 % of control; (dose: 200.0 mg/kg/injection, schedule: Q01DX009 (ip), vehicle: saline with Tween-80) 100 % of control.
As to `Cc1cccc(Br)[n+]1[O-]`, the T/C was 100 % of control (dose: 12.5 mg/kg/injection, schedule: Q01DX001 (ip), vehicle: saline); 109 % of control (dose: 25.0 mg/kg/injection, schedule: Q01DX001 (ip), vehicle: saline); 100 % of control (dose: 50.0 mg/kg/injection, schedule: Q01DX001 (ip), vehicle: saline).
As for `C=C[C@H]1C2=CCOC(=O)C2=CO[C@@H]1OC1OC(CO)C(O)C(O)C1O` (stereo partly specified), the T/C reads like this: (dose: 0.75 mg/kg/injection, schedule: Q01DX005 (ip), vehicle: water) 95 % of control; (dose: 1.5 mg/kg/injection, schedule: Q01DX005 (ip), vehicle: water) 95 % of control; (dose: 3.0 mg/kg/injection, schedule: Q01DX005 (ip), vehicle: water) 95 % of control; (dose: 6.0 mg/kg/injection, schedule: Q01DX005 (ip), vehicle: water) 99 % of control.
In the case of `Cc1cc(NCc2ccccc2)c(C)c2c1C=NCC2`, the T/C by setting is: (dose: 12.5 mg/kg/injection, schedule: Q01DX009 (ip), vehicle: distilled water + Tween-80) 97 % of control; (dose: 25.0 mg/kg/injection, schedule: Q01DX009 (ip), vehicle: distilled water + Tween-80) 97 % of control; (dose: 50.0 mg/kg/injection, schedule: Q01DX009 (ip), vehicle: distilled water + Tween-80) 106 % of control; (dose: 100.0 mg/kg/injection, schedule: Q01DX009 (ip), vehicle: distilled water + Tween-80) 92 % of control; (dose: 200.0 mg/kg/injection, schedule: Q01DX009 (ip), vehicle: distilled water + Tween-80) 87 % of control.
`CN=C(N)N/N=C(\C)c1ccc2oc3ccc(/C(C)=N/NC(N)=NC)cc3c2c1`: the T/C (dose: 25.0 mg/kg/injection, schedule: Q04DX002 (ip), vehicle: saline with Tween-80) was 150 % of control; the T/C (dose: 50.0 mg/kg/injection, schedule: Q04DX002 (ip), vehicle: saline with Tween-80) is 150 % of control; the T/C (dose: 100.0 mg/kg/injection, schedule: Q04DX002 (ip), vehicle: saline with Tween-80) was 154 % of control.
For the molecule `O=C1c2ccccc2C(=O)c2c1ccc1c2[nH]c2cc(Cl)c(Cl)cc21`, the T/C was 98 % of control (dose: 50.0 mg/kg/injection, schedule: Q01DX005 (ip), vehicle: Klucel + Tween-80); 91 % of control (dose: 100.0 mg/kg/injection, schedule: Q01DX005 (ip), vehicle: Klucel + Tween-80); 98 % of control (dose: 200.0 mg/kg/injection, schedule: Q01DX005 (ip), vehicle: Klucel + Tween-80).
On to `Cc1ccc(S(=O)(=O)C(C#N)CCC(=O)c2ccc(Cl)cc2)cc1` (stereo unspecified), for which the T/C by setting is: under setting [1], 107 % of control; under setting [2], 106 % of control; under setting [3], 105 % of control.
Take `COc1cc(Cc2n[nH]c(=S)[nH]c2=O)cc(OC)c1OC`: the T/C reads like this: (dose: 100.0 mg/kg/injection, schedule: Q04DX002 (ip), vehicle: Klucel (hydroxypropylcellulose) (HPC)) 110 % of control; (dose: 200.0 mg/kg/injection, schedule: Q04DX002 (ip), vehicle: Klucel (hydroxypropylcellulose) (HPC)) 98 % of control; (dose: 400.0 mg/kg/injection, schedule: Q04DX002 (ip), vehicle: Klucel (hydroxypropylcellulose) (HPC)) 100 % of control.
Regarding `Nc1ccc([N+](=O)[O-])c(N)n1`, the T/C was 100 % of control (dose: 100.0 mg/kg/injection, schedule: Q04DX003 (ip), vehicle: saline with Tween-80); 107 % of control (dose: 200.0 mg/kg/injection, schedule: Q04DX003 (ip), vehicle: saline with Tween-80); 97 % of control (dose: 400.0 mg/kg/injection, schedule: Q04DX003 (ip), vehicle: saline with Tween-80).
Take `C=C1C(C)C2C(Cc3ccccc3)NC(=O)C23OC(=O)/C=C\CC(=O)CCC(C)C/C=C/C3C1O` (stereo unspecified): the T/C is 110 % of control (dose: 5.0 mg/kg/injection, schedule: Q01DX009 (ip), vehicle: Klucel (hydroxypropylcellulose) (HPC)) and 118 % of control (dose: 10.0 mg/kg/injection, schedule: Q01DX009 (ip), vehicle: Klucel (hydroxypropylcellulose) (HPC)).
As for `C=CCc1ccc(C(=O)OCCCCCCCCCC)c(OC)c1`, the T/C reads like this: (dose: 50.0 mg/kg/injection, schedule: Q01DX009 (ip), vehicle: Klucel (hydroxypropylcellulose) (HPC)) 103 % of control; under setting [4], 105 % of control; (dose: 200.0 mg/kg/injection, schedule: Q01DX009 (ip), vehicle: Klucel (hydroxypropylcellulose) (HPC)) 105 % of control.
Consider `O=C(O)c1cccc(C(=O)O)c1Sc1ccccc1`, for which the T/C (dose: 100.0 mg/kg/injection, schedule: Q01DX001 (ip), vehicle: saline with Tween-80) is 103 % of control; the T/C (dose: 200.0 mg/kg/injection, schedule: Q01DX001 (ip), vehicle: saline with Tween-80) was 100 % of control; the T/C (dose: 400.0 mg/kg/injection, schedule: Q01DX001 (ip), vehicle: saline with Tween-80) was 94 % of control.
Regarding `[CH3][Sb]([CH3])[O][Sb]([CH3])[CH3]`, the T/C by setting is: under setting [5], 110 % of control; under setting [6], 111 % of control; under setting [7], 107 % of control.
Regarding `Cc1c2oc3c(C)ccc(C(=O)NC(C(=O)NC(C(=O)NN)C(C)C)C(C)O)c3nc-2c(C(=O)NC(C(=O)NC(C(=O)NN)C(C)C)C(C)O)c(N)c1=O` (stereo unspecified), the T/C reads like this: (dose: 0.05 mg/kg/injection, schedule: Q01DX009 (ip), vehicle: water) 106 % of control; (dose: 0.1 mg/kg/injection, schedule: Q01DX009 (ip), vehicle: water) 107 % of control; (dose: 0.2 mg/kg/injection, schedule: Q01DX009 (ip), vehicle: water) 97 % of control; (dose: 0.4 mg/kg/injection, schedule: Q01DX009 (ip), vehicle: water) 101 % of control; (dose: 0.8 mg/kg/injection, schedule: Q01DX009 (ip), vehicle: water) 101 % of control; (dose: 1.6 mg/kg/injection, schedule: Q01DX009 (ip), vehicle: water) 108 % of control and 110 % of control. Also, the T/C was 99 % of control (dose: 3.2 mg/kg/injection, schedule: Q01DX009 (ip), vehicle: water); 99 % of control (dose: 6.4 mg/kg/injection, schedule: Q01DX009 (ip), vehicle: water); 97 % of control (dose: 12.8 mg/kg/injection, schedule: Q01DX009 (ip), vehicle: water).
Consider `CC(=O)/C(=N/O)C(C)=NCc1ccccc1`, for which, under setting [4], the T/C was 88 % of control.
Take `Nc1ccc(-c2csc(Nc3ccnc4cc(Cl)ccc34)n2)cc1`: the T/C runs as follows: (dose: 50.0 mg/kg/injection, schedule: Q01DX005 (ip), vehicle: saline with Tween-80) 99 % of control; (dose: 100.0 mg/kg/injection, schedule: Q01DX005 (ip), vehicle: saline with Tween-80) 93 % of control; (dose: 200.0 mg/kg/injection, schedule: Q01DX005 (ip), vehicle: saline with Tween-80) 88 % of control.
`OCC(O)C(Cl)CCl` (stereo unspecified): the T/C was 101 % of control under setting [5], 100 % of control under setting [6] and 86 % of control under setting [7].
